Laboratory results: US20050191290A1, “Means and methods for manipulating hypersensitivity-like responses” (priority 2002, published 2005)
Peptide text beside a SMILES is read from it.

System: healthy male volunteers
Experiment: Phase 1 single rising dose clinical safety study
Type: in vivo, human
Excerpt: Primary objective: to study the safety and tolerability of F991 at increasing single dose levels in healthy male volunteers
Design: This study was a double-blind, placebo-controlled, single rising dose study in two alternating panels of eight healthy male volunteers. In each panel, two volunteers received placebo throughout the study and the other six volunteers received three increasing single doses of F991.
Safety assessments: vital signs; adverse events (including eyesight); ECG four times each period; clinical laboratory: on admission for each period
Panel I: period 1: 0.08 mg/kg F991 or placebo iv infusion • period 2: 0.8 mg/kg F991 or placebo iv infusion • period 3: 3.2 mg/kg F991 or placebo iv infusion
Panel II: period 1: 0.32 mg/kg F991 or placebo iv infusion • period 2: 1.6 mg/kg F991 or placebo iv infusion • period 3: 6.4 mg/kg F991 or placebo iv infusion Criteria for Evaluation
Safety: adverse events, clinical laboratory test results, ECG recordings, vital signs and physical examination

[1] = single i.v. doses 0.08-6.4 mg/kg

## CC(C)C[C@H](NC(=O)[C@H](CS)NC(=O)[C@H](CS)NC(=O)[C@H](Cc1c[nH]cn1)NC(=O)CNC(=O)[C@H](CO)NC(=O)[C@H](Cc1c[nH]c2ccccc12)NC(=O)[C@H](Cc1c[nH]cn1)NC(=O)[C@H](C)N)C(=O)O [F991] (H-AHWSGHCCL-OH)
I.V. single rising doses up to 6.4 mg/kg
  safety and tolerability: safe and well tolerated
[1]
  SAEs during the study: no SAEs
  clinical laboratory data, vital signs, ECG and physical examination: no clinically significant abnormalities
  correlation between dose and number, frequency and intensity of AEs: No correlation
  most frequently reported AEs for volunteers on active drug: eye disorders
